Structures are written as SMILES.

For series [1], the system named is IKK kinase activity. The series is described as follows: IKK kinase assay in MEF cells. It is filed as cell-based, mouse. As for the experimental part:
For MEF cells, 5.5×10^5 cells were seeded, then treated with compound for 6 hours and eventually stimulated with IL-1β or TNFα for 8 minutes. 1×10^6 Jurkat T-cells were treated with compound for 6 hours and finally stimulated with PMA (400 ng/ml) and lonomycin (600 ng/ml) for 8 minutes. After cell lysis in Co-IP lysis buffer (150 mM NaCl; 25 mM Hepes (pH 7.5); 0.2% NP-40; 1 mM Glycerol; 10 mM NaF; 8 mM β-Glycerophosphat; 1 mM DTT; 300 μM Sodium-vanadate; complete protease inhibitor), input samples were taken and the supernatant was then incubated with 6 μL IKKγ antibody FL-419 (Santa Cruz Biotechnology). Upon incubation with Protein-G-Sepharose beads (GE Healthcare), beads were washed in Co-IP wash buffer (150 mM NaCl; 25 mM Hepes (pH 7.5); 0.2% NP-40; 1 mM Glycerol) and transferred into kinase reaction buffer ([…] HEPES pH7.9; 10 mM MgCl2; 20 μM ATP; 20 mM β-Glycerophosphat; 200 μM Sodium-Vanadate; 1 mM DTT) supplemented with […] GST-IκBα (1-53) and 0.5 μL ^32P-γ-ATP. After 30 minutes incubation at 37° C., reaction was stopped and analyzed by autoradiography as well as Western Blot after separation on SDS-PAGE.

Series [2] deals with human peripheral blood mononuclear cells (PBMCs). The series is described as follows: Cytokine secretion of primary human PBMCs. The series is classed as cell-based. As for the experimental part:
For measurement of cytokine secretion, 2×10^5 Jurkat T-cells or primary CD4^+ T-cells or human PBMCs per sample were seeded, treated with compound for 6 hours and stimulated as indicated. 20 hours after stimulation, supernatants were harvested and analyzed with the IL-2, IL-1β and TNFα Ready-Set-Go! ELISA (2nd Generation) kits provided by Affymatrix eBioscience.
For isolation of peripheral blood mononuclear cells (PBMCs) from 50 mL human blood of three different donors, blood was mixed with 800 units of Heparin (Sigma-Aldrich) and centrifuged at 300×g for 10 minutes without brake. After removal of the plasma fraction, buffy coat was diluted in 2 volumes PBS and added on top of 15 ml Lymphoprep (STEMCELL technologies). After centrifugation at 160×g for 20 minutes at room temperature without brake, platelets were removed and the cell suspension was centrifuged again at 350 xg for 20 minutes without brake. Mononuclear cells from the intermediate layer were transferred to a new falcon and washed 3 times in PBS supplemented with 0.1% BSA and 2 mM EDTA. In the end, cells were resuspended in RPMI medium containing 10% FCS, 1% Penicillin/Streptomycin and 50 μM β-mercaptoethanol. Per sample, 2×10^5 cells were seeded and treated with compound for 6 hours. The cells were stimulated with either 1 μg/ml Lipopolysaccharide (LPS) or CD3/CD28 (1 μg hCD3 (IgG2A), 4 μg hCD28 (IgG1), 2 μg ant-IgG2A and 2 μg ant-IgG2A) or 20 ng/IL-1β. Supernatants for analysis of cytokine secretion were harvested 20 hours after stimulation.

The test system of series [3] is plasma protein. Put plainly: Plasma protein binding. It is filed as in vitro ADME. As for the experimental part:
All ADME (plasma stability, plasma protein binding, microsomal stability, Log D, Caco-2 assay, CYP450 inhibition and hERG predictor assay) as well as pharmacokinetic studies (Tmax, Cmax, AUC0-240 min, Mean Residence Time, Elimination half life, Elimination rate constant, Volume of Distribution and Clearance) of C25-140 (compound 3) were conducted by Bienta Enamine Biology Services of Bienta/Enamine Ltd.

Series [4] relates to IMQ-induced psoriasis, Balb/C mice. Put plainly: Imiquimod (IMQ)-induced psoriasis mouse model. The series is classed as in vivo. As for the experimental part:
To evaluate the anti-inflammatory activity of the compound C25-140 (compound 3), an Imiquimod (IMQ)-induced psoriasis mouse model was conducted by Washington Biotechnology, Inc. (Baltimore, USA). Per group, 8 male Balb/C mice were shaved in the back (1.5 cm×2 cm) and IMQ and C25-140 were applied topically to the shaved back and the right ear daily for 6 days. Thereby, C25-140 was dissolved in acetone and applied at a total dosage of 500 μg per day (2×250 μg). Mice were monitored and daily scores (erythema, scaling and thickness of back skin) were independently collected on a scale from 0 to 4:0=none; 1=slight; 2=moderate; 3=marked and 4=very marked. Ear thickness was measured by electronic calipers as an indicator of edema. IL-17 cytokine secretion of the right ear tissue was measured by ELISA.

Series [5] has as its system Collagen-Induced Arthritis, DBA1/J mice. Put plainly: Collagen-Induced Arthritis (CIA) model. It is filed as in vivo, mouse. Here is the method: In order to test the potential of C25-140 to ameliorate RA symptoms, a Collagen-Induced Arthritis (CIA) Model in DBA1/J mice was performed by Washington Biotechnology, Inc. (Baltimore, USA). Each group of ten mice was subjected to a single subcutaneous injection of collagen/complete Freund's Adjuvant emulsion (0.05 ml/mouse; 100 μg collagen/CFA). After 20 days (day 21), mice were booster injected with collagen (0.05 ml/mouse; 100 μg/mouse collagen in Incomplete Freund's Adjuvant). On day 28, mice were scored for their Arthritic Index (AI) and 14 days intraperitoneally dosed twice daily with 6 mg/kg, 10 mg/kg and 14 mg/kg C25-140, respectively. Mice were scored of macroscopic signs of arthritis daily. Thereby, the following scoring index was applied to each individual paw: 0=no visible effects of arthritis; 1=edema and/or erythema of 1 digit; 2=edema and/or erythema of 2 digits; 3=edema and/or erythema of more than 2 digits; 4=severe arthritis of entire paw and digits. Single paw scores were added and recorded. On day 42, animals were euthanized, limbs were collected and histopathology was performed using Toluidine blue staining with scoring of several parameters.

In series [6] the test system is U2OS cells. The series is described as follows: Cell growth of osteosarcoma cell line U2OS. It is filed as cell-based. Here is the method: For analysis of the cell growth of the osteosarcoma cell line U20S, 5×10^3 cells were seeded in 96 well plates. 18 hours later, cells were treated with C25-140 (compound 3) or DMSO for 6 hours. Using a ^137caesium source (HWM-D2000), selected samples were irradiated with a dose of either 2 Gy or 4 Gy. Cell growth was measured every 24 hours for a period of 7 days by counting Hoechst33342 positive cells in an Operetta High-Content Imaging System (PerkinElmer) and the Harmony/Columbus analysis software (PerkinElmer).

On to `Cc1nn(-c2ccc3nnc(C)n3n2)c(C)c1CCC(=O)N1CCC(Cc2ccccc2)CC1` [Compound 3, 1-(4-benzylpiperidin-1-yl)-3-(3,5-dimethyl-1-(3-methyl-[1,2,4]triazolo[4,3-b]pyridazin-6-yl)-1H-pyrazol-4-yl)propan-1-one], for which the “IKK kinase activity after IL-1β stimulation” value in series [1] is “decreased”. Also, in series [1] (TNFα), the “TNFα induced phosphorylation of IκBα” value is on record as “also affected”. In addition, in series [2] (human PBMCs stimulated with CD3/CD28), the “secretion of IL-2 and TNFα” value is given as “decreased levels”. Also, the “secretion of IL-6 and TNFα” value in series [2] (human PBMCs stimulated with IL-1β) is “attenuated”. The “secretion of IL-1β and TNFα” value in series [2] (human PBMCs stimulated with LPS) is “reduced levels”. Further, the plasma protein binding result in series [3] is given as “decent good plasma protein binding capacity”. Besides, the “IL-17 in right ear tissue” value in series [4] (day 6, ELISA) is “decreased”. In series [4] (topical twice daily, 6 days), the “cumulative score (thickness, scaling, erythema of the back)” value is listed as “reduces”; the ear thickness entry is given as “significantly reduced”; the “scaling, erythema and ear thickness scores” value was “improvement of the disease symptoms”; the “thickness score of the back” value is “significantly reduce”. The “arthritic index (AI)” value in series [5] (10 mg/kg and 14 mg/kg IP twice daily, 14 days) is “almost completely ameliorated”. For the same compound, the “histology of limbs (summed scores, inflammation, pannus, cartilage damage, bone resorption)” value in series [5] (6, 10, 14 mg/kg IP twice daily) is “dose-dependently improves”. In addition, in series [5] (throughout the study), the body weight result is listed as “did not show any signs of reduction”. Further, the “cell proliferation, compound alone vs 2Gy irradiation” value in series [6] (30 μM) is “same inhibitory impact”. In addition, in series [6] (30 μM C25-140+2Gy), the “cell proliferation, combination with 2Gy irradiation” value is recorded as “boosted the effect to the region of 4Gy irradiation”.

Source of the values: patent publication US11001591B2, “TRAF 6 inhibitors” (HELMHOLTZ ZENTRUM MUENCHEN—DEUTSCHES FORSCHUNGSZENTRUM FÜR …, priority 2016, dated 2021).
